# Experimental data reported in ChEMBL document CHEMBL3399945, “A class of sulfonamide carbonic anhydrase inhibitors with neuropathic pain modulating effects” (Bioorg Med Chem, 2015).
# Key:
# Carbonic anhydrase 9 = Carbonic anhydrase 9 (Homo sapiens, UniProt Q16790)
# Description: Inhibition of human recombinant CA-9 after 15 mins by stopped-flow CO2 hydrase assay
# Carbonic anhydrase 12 = Carbonic anhydrase 12 (Homo sapiens, UniProt O43570)
# Description: Inhibition of human recombinant CA-12 after 15 mins by stopped-flow CO2 hydrase assay
# Carbonic anhydrase 7 = Carbonic anhydrase 7 (Homo sapiens, UniProt P43166); assay: Inhibition of human recombinant CA-7 after 15 mins by stopped-flow CO2 hydrase assay
# Chain of Carbonic anhydrase 7 (P43166 whole entry): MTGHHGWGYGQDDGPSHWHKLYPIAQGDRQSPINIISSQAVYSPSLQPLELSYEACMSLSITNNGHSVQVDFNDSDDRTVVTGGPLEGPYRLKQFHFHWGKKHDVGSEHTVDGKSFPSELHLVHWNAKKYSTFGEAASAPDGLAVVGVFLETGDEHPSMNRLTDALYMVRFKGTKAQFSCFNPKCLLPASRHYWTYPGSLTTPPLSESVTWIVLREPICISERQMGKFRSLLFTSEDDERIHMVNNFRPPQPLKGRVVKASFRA
# Carbonic anhydrase 1 = Carbonic anhydrase 1 (Homo sapiens, UniProt P00915); assay: Inhibition of human recombinant CA-1 after 15 mins by stopped-flow CO2 hydrase assay
# Chain of Carbonic anhydrase 1 (P00915 whole entry): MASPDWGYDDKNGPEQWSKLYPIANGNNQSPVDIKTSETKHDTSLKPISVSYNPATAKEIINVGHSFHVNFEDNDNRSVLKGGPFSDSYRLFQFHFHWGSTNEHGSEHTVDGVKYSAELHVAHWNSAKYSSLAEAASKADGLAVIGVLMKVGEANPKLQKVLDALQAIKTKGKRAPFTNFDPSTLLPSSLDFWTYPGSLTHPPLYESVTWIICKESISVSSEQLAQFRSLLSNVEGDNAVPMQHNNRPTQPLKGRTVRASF
# Carbonic anhydrase 2 = Carbonic anhydrase 2 (Homo sapiens, UniProt P00918); assay: Inhibition of human recombinant CA-2 after 15 mins by stopped-flow CO2 hydrase assay
# Mus musculus [1] = assay: Inhibition of oxaliplatin-induced neuropathic pain in po dosed CD-1 mouse model assessed as latency to pain-related behavior after 15 to 45 mins by cold plate test; format: functional
# Mus musculus [2] = assay: Inhibition of oxaliplatin-induced neuropathic pain in po dosed CD-1 mouse model assessed as latency to pain-related behavior after 15 to 45 mins by cold plate test relative to acetazolamide; format: functional
# Chain of Carbonic anhydrase 12 (O43570 whole entry): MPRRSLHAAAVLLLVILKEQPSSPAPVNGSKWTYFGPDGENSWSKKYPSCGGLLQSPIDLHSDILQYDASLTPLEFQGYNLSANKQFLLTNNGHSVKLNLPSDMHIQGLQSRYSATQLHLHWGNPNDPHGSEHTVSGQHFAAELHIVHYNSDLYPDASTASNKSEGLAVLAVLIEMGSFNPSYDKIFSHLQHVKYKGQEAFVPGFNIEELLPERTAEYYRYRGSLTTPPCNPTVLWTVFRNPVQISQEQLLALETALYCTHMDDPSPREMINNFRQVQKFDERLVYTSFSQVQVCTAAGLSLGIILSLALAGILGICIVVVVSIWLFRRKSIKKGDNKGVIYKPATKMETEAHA
SMILES,Ki (Carbonic anhydrase 9) [nM],Ki (Carbonic anhydrase 12) [nM],Ki (Carbonic anhydrase 7) [nM],Ki (Carbonic anhydrase 1) [nM],Ki (Carbonic anhydrase 2) [nM],"minimal effective dose (Mus musculus [1]; CD-1, po, read-out: MED) [mg/kg]",Ratio (Mus musculus [2]),inhibition (Mus musculus [1])
NS(=O)(=O)c1ccc(OCc2ccc(Br)cc2)cc1,3.5,6.4,8.9,246,27.8,–,–,–
NS(=O)(=O)c1ccc(OCC#Cc2ccccc2)cc1,21.6,33.8,97.2,3450,41.6,–,–,–
NS(=O)(=O)c1ccc(OCc2ccc([N+](=O)[O-])cc2)cc1,1.3,0.72,0.9,143,1.4,–,–,–
NS(=O)(=O)c1ccc(OCc2c(F)c(F)c(F)c(F)c2F)cc1,0.86,0.75,8.9,231,26,–,–,–
NS(=O)(=O)c1nc2ccc(OCc3ccccc3)cc2s1,–,2.5,7.7,48.1,7.6,–,–,–
NS(=O)(=O)c1ccc2c(c1)CCN2C(=O)C(F)(F)F,6.9,4.1,8.3,34.3,9.2,–,–,–
NS(=O)(=O)c1nc2ccc(OCC#Cc3ccccc3)cc2s1,10.3,6.2,73.8,2420,52.1,–,–,–
NS(=O)(=O)c1ccc(OCc2ccccc2)cc1,17.9,10.5,8.3,762,20.3,–,–,–
NS(=O)(=O)c1ccc(OCC(c2ccccc2)c2ccccc2)cc1,34.1,50.4,70.7,5680,22.1,–,–,–
NS(=O)(=O)c1ccc(OCc2ccc(F)cc2)cc1,–,8,9.7,315,23.8,–,–,–
C#CCN(CC#C)c1ccc(S(N)(=O)=O)cc1,9,4.9,8.6,6400,1780,–,–,–
C=CCOc1ccc(S(N)(=O)=O)cc1,13.5,6.8,9.9,–,–,–,–,–
CC(=O)Nc1nnc(S(N)(=O)=O)s1 [ACETAZOLAMIDE],–,–,–,–,–,30,–,–

# More lines, main results first:
Ki (Carbonic anhydrase 9) [nM],Ki (Carbonic anhydrase 12) [nM],Ki (Carbonic anhydrase 7) [nM],Ki (Carbonic anhydrase 1) [nM],Ki (Carbonic anhydrase 2) [nM],SMILES,"minimal effective dose (Mus musculus [1]; CD-1, po, read-out: MED) [mg/kg]",Ratio (Mus musculus [2]),inhibition (Mus musculus [1])
10.1,8.5,9.8,797,7.3,CCCCOc1ccc(S(N)(=O)=O)cc1,–,–,–
13.2,7.9,10.1,780,12.8,CCCOc1ccc(S(N)(=O)=O)cc1,–,–,–
–,10.7,86.4,453,31.7,NS(=O)(=O)c1ccc(OCCN2CCOCC2)cc1,–,–,–
2.4,1.2,9.4,207,7.8,NS(=O)(=O)c1ccc(OCCc2ccccc2)cc1,–,–,–
–,2.3,9.6,2340,28.7,C#CCOc1ccc(S(N)(=O)=O)cc1,–,–,–
8.1,13.6,9.5,246,23.1,CCOc1ccc(S(N)(=O)=O)cc1,–,3,Dose-dependent effect
